Data as given in patent US6426355B1, “Heterocyclic carboxamide-containing thiourea inhibitors of herpes viruses containing phenylenediamine group” (American Home Products, priority 1998, dated 2002).
≈ marks a conversion by molar mass, not a printed value.

What was measured:
[1] = tested on: HCMV recombinant mutant virus (RV145); assay: HCMV microtiter plate assay (beta-glucuronidase reporter); format: cell-based, Human Cytomegalovirus; details: for IC50 (ug/ml) HCMV: HCMV in human foreskin fibroblasts; for IC50: Human betaherpesvirus 5, Fibroblast, read-out: IC50 (ug/ml) HCMV
In short: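 Replication was read out as virus-encoded β-glucuronidase activity, measured with a chromogenic or fluorogenic glucuronide substrate in cell lysates at 96 h post-infection. Infection of human foreskin fibroblasts with RV145 took place with compound present. IC50 was derived from a range of inhibitor amounts.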

HSV-1 = assay: HSV Antiviral (ELISA) assay; format: cell-based; details: for IC50 (ug/ml) HSV: HSV-1 in Vero cells; for IC50: Human alphaherpesvirus 1, HSV-1 in Vero cells, read-out: IC50 (ug/ml) HSV
In short: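 Replication measured as glycoprotein D signal in fixed cells: anti-gD antibody plus β-galactosidase-linked secondary, fluorogenic substrate read at 365/450 nm. Vero cells (2% FBS DMEM) received compound 30 min pre-infection, HSV-1 MOI 0.006, ~24 h incubation; IC50 relative to no-compound fluorescence.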

VZV strain Ellen = assay: VZV Antiviral (ELISA) assay; format: cell-based; details: for IC50 (ug/ml) VZV / % inhibition 10 ug/ml VZV: VZV strain Ellen in HFF cells; for % inhibition 10 ug/ml VZV: at 10 ug/ml; for inhibition at 10 µg/mL: Human alphaherpesvirus 3, read-out: % inhibition 10 ug/ml VZV, at 10 ug/ml, VZV strain Ellen in HFF cells; for IC50: Human alphaherpesvirus 3, VZV strain Ellen in HFF cells, read-out: IC50 (ug/ml) VZV
In short: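 Cell-based VZV (Ellen) spread assay in HFF, 3-day compound exposure in 2% FBS medium. Viral antigen quantified by fluorescent β-galactosidase ELISA; IC50 from inhibition of signal.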

Row | Compound | IC50 (ug/ml) HCMV [1] [µg/mL] | IC50 (ug/ml) HSV (HSV-1) [µg/mL] | IC50 (ug/ml) VZV (VZV strain Ellen) [µg/mL] | % inhibition 10 ug/ml VZV (VZV strain Ellen) [%] | IC50 [1] [µg/mL] | IC50 (HSV-1) [µg/mL] | inhibition at 10 µg/mL (VZV strain Ellen) [%] | IC50 (VZV strain Ellen) [µg/mL]
1 | O=C(Nc1ccc(NC(=S)Nc2ccc(NC(=O)c3ccccc3F)cc2)cc1Cl)OCCN1CCCCC1 [Example 438] | 3 (≈ 5.26 µM) | 5 (≈ 8.77 µM) | 1.5 (≈ 2.63 µM) | 73 | – | – | – | –
2 | O=C(Nc1ccc(NC(=S)Nc2cccc(OC(F)(F)F)c2)cc1)c1ccccc1F [Example 1011, 2-Fluoro-N-{4-[3-(3-trifluoromethoxy-phenyl)-thioureido]-phenyl} -benzamide] | – | – | – | – | 0.039 (≈ 0.0868 µM) | > 10 | 20 | –
3 | CN1CCC(N(C)c2ccc(NC(=S)Nc3ccc(NC(=O)c4csnn4)cc3)cc2Cl)C1 (centres unmarked) [Example 341] | 0.15 (≈ 0.299 µM) | 2 (≈ 3.98 µM) | >10 | 50 | – | – | – | –
4 | COc1cc(OC)c(NC(=S)Nc2ccc(NC(=O)c3cnns3)cc2)cc1Cl [Example 323] | 0.03 (≈ 0.0667 µM) | 3 (≈ 6.67 µM) | >10 | 45 | – | – | – | –
5 | O=C(Nc1ccc(NC(=S)Nc2cccc(Cl)c2Cl)cc1)c1csnn1 [Example 979, [1,2,3]Thiadiazole-4-carboxylic acid {4-[3-(2,3-dichloro-phenyl)-thioureido]-phenyl} -amide] | – | – | – | – | 0.19 (≈ 0.448 µM) | 8 (≈ 18.9 µM) | 88 | 12 (≈ 28.3 µM)
6 | CC(NC(=S)Nc1ccc(NC(=O)c2ccco2)cc1)c1ccccc1 (centres unmarked) [Example 590] | 0.12 (≈ 0.328 µM) | >10 | 1 (≈ 2.74 µM) | – | – | – | – | –
7 | CC(C)(C)c1cccc(NC(=S)Nc2ccc(NC(=O)c3csnn3)cc2)c1 [Example 509] | 0.03 (≈ 0.0729 µM) | >10 | >10 | 31 | – | – | – | –
8 | COc1cc(C)c(Cl)cc1NC(=S)Nc1ccc(NC(=O)c2ccccn2)cc1 [Example 352] | 0.6 (≈ 1.41 µM) | 3 (≈ 7.03 µM) | >10 | 51 | – | – | – | –
9 | O=C(Nc1ccc(NC(=S)NCCc2ccc(Br)cc2)cc1)c1ccco1 [Example 604] | 0.025 (≈ 0.0563 µM) | >10 | 10 (≈ 22.5 µM) | – | – | – | – | –
10 | O=C(Nc1ccc(CNC(=S)Nc2ccc(Cl)c(Cl)c2)cc1)c1csnn1 [Example 630] | 0.4 (≈ 0.912 µM) | >10 | 4 (≈ 9.12 µM) | – | – | – | – | –
11 | COc1cc(OC)c(NC(=S)Nc2ccc(NC(=O)c3sccc3Br)cc2)cc1Cl [Example 175] | >10 | 2 (≈ 3.8 µM) | >10 | 24 | – | – | – | –
12 | CC(NC(=S)Nc1ccc(NC(=O)c2ccco2)cc1)c1ccc(F)cc1 (centres unmarked) [Example 592] | 0.049 (≈ 0.128 µM) | >10 | 2 (≈ 5.22 µM) | – | – | – | – | –
13 | O=C(Nc1ccc(NC(=S)Nc2ccc3[nH]nnc3c2)cc1)c1ccco1 [Example 526] | 3 (≈ 7.93 µM) | >10 | 2.5 (≈ 6.61 µM) | 22 | – | – | – | –
14 | CC(NC(=S)Nc1ccc(NC(=O)c2ccc3ccccc3n2)cc1)c1ccc(F)cc1 (centres unmarked) [Example 796] | 4 (≈ 9 µM) | >10 | >7.5 | – | – | – | – | –
15 | Nc1c(Cl)cccc1NC(=S)Nc1ccc(NC(=O)c2ccco2)cc1 [Example 446] | 0.7 (≈ 1.81 µM) | 10 (≈ 25.8 µM) | >10 | – | – | – | – | –
16 | CN(C)c1ccc(CNC(=S)Nc2ccc(NC(=O)c3csnn3)cc2)cc1C(F)(F)F [Example 602] | 0.0015 (≈ 0.00312 µM) | >10 | >10 | – | – | – | – | –
17 | Cc1nc(C(=O)Nc2ccc(NC(=S)Nc3ccc(Cl)c(Cl)c3)cc2)cs1 [Example 1139, 2-Methyl-thiazole-4-carboxylic acid {4-[3-(3,4-dichloro-phenyl)-thioureido]-phenyl}-amide] | – | – | – | – | 1.2 (≈ 2.74 µM) | 3.7 (≈ 8.46 µM) | – | 6 (≈ 13.7 µM)
